Reference: US12691070B2, “Cationic lipids and preparation method thereof” (RiboX Therapeutics HK Limited, priority 2023, dated 2026)

Assays:
Hep G2 cells [1] = assay: In vitro toxicity (CellTiter-Glo cell viability), Hep G2; format: cell-based; conditions: cirRNA (SEQ ID NO: 1) LNPs; Hep G2 cells;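 also: percent of untreated cells luminescence signal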
How it was run: (§1)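 Luminescent ATP read-out (CellTiter-Glo) gives the viability value, taken 72 h after cells were exposed to RNA-loaded lipid nanoparticles at 1 μg/mL.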

[2] = LNP size and polydispersity index (PDI) by dynamic light scattering; format: physicochemical; conditions: LNP with cirRNA (SEQ ID NO: 1); for Size: in nm (unit assumed)
How it was run: (§2)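 Dynamic light scattering and zeta potential measurements were run on PBS-dialyzed LNPs, which had been formed by microfluidic mixing at 12 ml/min with final lipid at 1.5 mM to 6 mM. RNA content and percent encapsulation were determined by Ribogreen with and without Triton X-100.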

BALB/C mice = assay: In vivo expression, whole-body luminescence (IVIS); conditions: cirRNA (SEQ ID NO: 1) LNPs, BALB/C mice
Protocol: 6-8 week old, female BALB/C mice were injected with 0.05 mg*kg-1 of RNA-LNPs encoding for firefly-luciferase by intravenous injection. At 6 hours post injection, animals were intraperitoneally injected with 15 mg/ml of Luciferin substrate and whole-body luminescence was determined by a bioluminescent in vivo imaging system (IVIS).

Hep G2 cells [3] = assay: In vitro expression of firefly-luciferase, Hep G2; format: cell-based; conditions: cirRNA (SEQ ID NO: 1) LNPs; firefly-luciferase luminescence; Hep G2 cells
How it was run: (§3)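 First, cells were dosed with RNA lipid nanoparticles encoding firefly luciferase (100 ng/mL). Second, at 72 h they were washed and lysed. Third, lysate luciferase activity was read with a luminometer.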

[4] = RNA encapsulation efficacy by Quant-IT Ribogreen kit; format: physicochemical; conditions: LNP with cirRNA (SEQ ID NO: 1)
How it was run: as §2

RAW 264.7 cells [5] = assay: In vitro expression of firefly-luciferase, RAW 264.7; format: cell-based; conditions: cirRNA (SEQ ID NO: 1) LNPs; firefly-luciferase luminescence; RAW 264.7 cells
How it was run: as §3

RAW 264.7 cells [6] = assay: In vitro toxicity (CellTiter-Glo cell viability), RAW 264.7; format: cell-based; conditions: cirRNA (SEQ ID NO: 1) LNPs; RAW 264.7 cells;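 also: percent of untreated cells luminescence signal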
How it was run: as §1

[7] = LNP zeta potential (Zetasizer); format: physicochemical; conditions: LNP with cirRNA (SEQ ID NO: 1)
How it was run: as §2

## CCCCC/C=C\C/C=C\CCCCCCCCN(CCCCCCCC(=O)OC(CCCCCCCC)CCCCCCCC)CCCOC(=O)NCCCN(CC)CC [Lipid 272]
Hep G2 cells [1]
  In vitro Viability HepG2: 97%
[2]
  PDI: 0.3463
  Size: 74.91
BALB/C mice
  In vivo Expression (Whole Body): 6.35E+06
Hep G2 cells [3]
  In vitro Expression HepG2: 1.01E+07
[4]
  Encapsulation Efficiency %: 95%
RAW 264.7 cells [5]
  In vitro Expression RAW: 1.34E+06
RAW 264.7 cells [6]
  In vitro Viability RAW: 121%
[7]
  Zeta (mV): 5.434 mV

## CCCCC/C=C\C/C=C\CCCCCCCCN(CCCCCCCC(=O)OC(CCCCCCCC)CCCCCCCC)CCCOC(=O)NCCN1CCN(C)CC1 [Lipid 273]
Hep G2 cells [1]
  In vitro Viability HepG2: 93%
[2]
  PDI: 0.257
  Size: 88.34
BALB/C mice
  In vivo Expression (Whole Body): 5.16E+06
Hep G2 cells [3]
  In vitro Expression HepG2: 6.48E+06
[4]
  Encapsulation Efficiency %: 95%
RAW 264.7 cells [5]
  In vitro Expression RAW: 1.35E+06
RAW 264.7 cells [6]
  In vitro Viability RAW: 121%
[7]
  Zeta (mV): 1.543 mV

## CCCCC/C=C\C/C=C\CCCCCCCCN(CCCCCCCC(=O)OC(CCCCCCCC)CCCCCCCC)CCCOC(=O)NCCN1CCOCC1 [Lipid 274]
Hep G2 cells [1]
  In vitro Viability HepG2: 97%
[2]
  PDI: 0.112
  Size: 50.6
BALB/C mice
  In vivo Expression (Whole Body): 2.06E+07
Hep G2 cells [3]
  In vitro Expression HepG2: 4.11E+06
[4]
  Encapsulation Efficiency %: 94%
RAW 264.7 cells [5]
  In vitro Expression RAW: 4.30E+05
RAW 264.7 cells [6]
  In vitro Viability RAW: 127%
[7]
  Zeta (mV): −2.714 mV

## CCCCC/C=C\C/C=C\CCCCCCCCN(CCCCCCCC(=O)OC(CCCCCCCC)CCCCCCCC)CCCOC(=O)NCCCN(C)C [Lipid 275]
Hep G2 cells [1]
  In vitro Viability HepG2: 102%
[2]
  PDI: 0.2727
  Size: 60
BALB/C mice
  In vivo Expression (Whole Body): 3.66E+06
Hep G2 cells [3]
  In vitro Expression HepG2: 7.54E+06
[4]
  Encapsulation Efficiency %: 95%
RAW 264.7 cells [5]
  In vitro Expression RAW: 4.30E+05
RAW 264.7 cells [6]
  In vitro Viability RAW: 129%
[7]
  Zeta (mV): 6.337 mV

## CCCCC/C=C\C/C=C\CCCCCCCCN(CCCCCCCC(=O)OC(CCCCCCCC)CCCCCCCC)CCCOC(=O)NCCN1CCCC1 [Lipid 277]
Hep G2 cells [1]
  In vitro Viability HepG2: 89%
[2]
  PDI: 0.2188
  Size: 76.75
BALB/C mice
  In vivo Expression (Whole Body): 7.29E+07
Hep G2 cells [3]
  In vitro Expression HepG2: 1.17E+07
[4]
  Encapsulation Efficiency %: 92%
RAW 264.7 cells [5]
  In vitro Expression RAW: 8.13E+06
RAW 264.7 cells [6]
  In vitro Viability RAW: 121%
[7]
  Zeta (mV): −0.6853 mV

## CCCCCCCCC(CCCCCCCC)OC(=O)CCCCCCCN(CCCCCCCCOC(=O)C(CCCCCC)CCCCCCCC)CCNC(=O)OCCN(C)C (stereo not drawn) [Lipid 279]
Hep G2 cells [1]
  In vitro Viability HepG2: 23%
[2]
  PDI: 0.2722
  Size: 87.32
BALB/C mice
  In vivo Expression (Whole Body): 3.67E+07
Hep G2 cells [3]
  In vitro Expression HepG2: 5.05E+06
[4]
  Encapsulation Efficiency %: 95%
RAW 264.7 cells [5]
  In vitro Expression RAW: 1.62E+05
RAW 264.7 cells [6]
  In vitro Viability RAW: 55%
[7]
  Zeta (mV): −0.06404 mV

## CCCCCCCCC(CCCCCCCC)OC(=O)CCCCCCCN(CCCCCCCCOC(=O)C(CCCCCC)CCCCCCCC)CCCOC(=O)NCc1ncc[nH]1 (stereo not drawn) [Lipid 345]
Hep G2 cells [1]
  In vitro Viability HepG2: 99%
[2]
  PDI: 0.1901
  Size: 70.01
BALB/C mice
  In vivo Expression (Whole Body): 2.49E+06
Hep G2 cells [3]
  In vitro Expression HepG2: 2.57E+06
[4]
  Encapsulation Efficiency %: 92%
RAW 264.7 cells [5]
  In vitro Expression RAW: 2.20E+05
RAW 264.7 cells [6]
  In vitro Viability RAW: 102%
[7]
  Zeta (mV): −2.69 mV

## CCCCCCCCC(CCCCCCCC)OC(=O)CCCCCCCN(CCCCCCCCOC(=O)C(CCCCCC)CCCCCCCC)CCCOC(=O)NCCCN(CC)CC (stereo not drawn) [Lipid 346]
Hep G2 cells [1]
  In vitro Viability HepG2: 73%
[2]
  PDI: 0.264
  Size: 111.1
BALB/C mice
  In vivo Expression (Whole Body): 3.59E+06
Hep G2 cells [3]
  In vitro Expression HepG2: 1.02E+06
[4]
  Encapsulation Efficiency %: 95%
RAW 264.7 cells [5]
  In vitro Expression RAW: 1.46E+05
RAW 264.7 cells [6]
  In vitro Viability RAW: 93%
[7]
  Zeta (mV): −0.00452 mV

## CCCCCCCCC(CCCCCCCC)OC(=O)CCCCCCCN(CCCCCCCCOC(=O)C(CCCCCC)CCCCCCCC)CCCOC(=O)NCCN1CCN(C)CC1 (stereo not drawn) [Lipid 347]
Hep G2 cells [1]
  In vitro Viability HepG2: 92%
[2]
  PDI: 0.2462
  Size: 90.56
BALB/C mice
  In vivo Expression (Whole Body): 7.61E+06
Hep G2 cells [3]
  In vitro Expression HepG2: 1.04E+06
[4]
  Encapsulation Efficiency %: 94%
RAW 264.7 cells [5]
  In vitro Expression RAW: 4.27E+04
RAW 264.7 cells [6]
  In vitro Viability RAW: 96%
[7]
  Zeta (mV): −0.6677 mV

## CCCCCCCCC(CCCCCCCC)OC(=O)CCCCCCCN(CCCCCCCCOC(=O)C(CCCCCC)CCCCCCCC)CCCOC(=O)NCCc1ncc[nH]1 (stereo not drawn) [Lipid 349]
Hep G2 cells [1]
  In vitro Viability HepG2: 90%
[2]
  PDI: 0.1452
  Size: 75.85
BALB/C mice
  In vivo Expression (Whole Body): 1.01E+07
Hep G2 cells [3]
  In vitro Expression HepG2: 2.42E+04
[4]
  Encapsulation Efficiency %: 97%
RAW 264.7 cells [5]
  In vitro Expression RAW: 7.58E+03
RAW 264.7 cells [6]
  In vitro Viability RAW: 87%
[7]
  Zeta (mV): 0.02482 mV

## CCCCCCCCC(CCCCCCCC)OC(=O)CCCCCCCN(CCCCCCCCOC(=O)C(CCCCCC)CCCCCCCC)CCCOC(=O)NCCN1CCC1 (stereo not drawn) [Lipid 353]
Hep G2 cells [1]
  In vitro Viability HepG2: 37%
[2]
  PDI: 0.2483
  Size: 116.6
BALB/C mice
  In vivo Expression (Whole Body): 1.48E+06
Hep G2 cells [3]
  In vitro Expression HepG2: 4.17E+04
[4]
  Encapsulation Efficiency %: 95%
RAW 264.7 cells [5]
  In vitro Expression RAW: 3.38E+03
RAW 264.7 cells [6]
  In vitro Viability RAW: 40%
[7]
  Zeta (mV): 4.334 mV

## CCCCCCCCCC(=O)OCCCCCCCN(CCCCCCCCOC(=O)C(CCCCCC)CCCCCCCC)CCCOC(=O)NCCCN(C)C (stereo not drawn) [Lipid 355]
Hep G2 cells [1]
  In vitro Viability HepG2: 123%
[2]
  PDI: 0.2834
  Size: 64.55
BALB/C mice
  In vivo Expression (Whole Body): 7.94E+05
Hep G2 cells [3]
  In vitro Expression HepG2: 1.70E+03
[4]
  Encapsulation Efficiency %: 90%
RAW 264.7 cells [5]
  In vitro Expression RAW: 9.80E+02
RAW 264.7 cells [6]
  In vitro Viability RAW: 72%
[7]
  Zeta (mV): 8.299 mV

## CCCCCCCCCC(=O)OCCCCCCCN(CCCCCCCCOC(=O)C(CCCCCC)CCCCCCCC)CCCOC(=O)NCCCn1ccnc1 (stereo not drawn) [Lipid 356]
Hep G2 cells [1]
  In vitro Viability HepG2: 112%
[2]
  PDI: 0.423
  Size: 336.5
BALB/C mice
  In vivo Expression (Whole Body): 5.24E+05
Hep G2 cells [3]
  In vitro Expression HepG2: 1.96E+03
[4]
  Encapsulation Efficiency %: 77%
RAW 264.7 cells [5]
  In vitro Expression RAW: 1.06E+04
RAW 264.7 cells [6]
  In vitro Viability RAW: 84%
[7]
  Zeta (mV): −0.5834 mV

## CCCCCCCCCC(=O)OCCCCCCCN(CCCCCCCCOC(=O)C(CCCCCC)CCCCCCCC)CCCOC(=O)NCCN1CCCC1 (stereo not drawn) [Lipid 357]
Hep G2 cells [1]
  In vitro Viability HepG2: 120%
[2]
  PDI: 0.3136
  Size: 104.3
BALB/C mice
  In vivo Expression (Whole Body): 1.85E+06
Hep G2 cells [3]
  In vitro Expression HepG2: 2.53E+05
[4]
  Encapsulation Efficiency %: 87%
RAW 264.7 cells [5]
  In vitro Expression RAW: 7.92E+03
RAW 264.7 cells [6]
  In vitro Viability RAW: 8%
[7]
  Zeta (mV): 6.34 mV

## CCCCCCCCCC(=O)OCCCCCCCN(CCCCCCCCOC(=O)C(CCCCCC)CCCCCCCC)CCOC(=O)NCCCN1CCCCC1 (stereo not drawn) [Lipid 358]
Hep G2 cells [1]
  In vitro Viability HepG2: 121%
[2]
  PDI: 0.1606
  Size: 81.33
BALB/C mice
  In vivo Expression (Whole Body): 2.29E+07
Hep G2 cells [3]
  In vitro Expression HepG2: 1.88E+05
[4]
  Encapsulation Efficiency %: 87%
RAW 264.7 cells [5]
  In vitro Expression RAW: 9.81E+03
RAW 264.7 cells [6]
  In vitro Viability RAW: 83%
[7]
  Zeta (mV): 1.109 mV
